Laboratory results taken from US10738056B2 (Aduro BioTech, Inc., priority 2017, dated 2020).
Like-named read-outs stand apart in the source and are kept apart here.

What was measured:
[1] = target: Human cGAS amino acids 155-522 (Homo sapiens (Human), UniProt Q8N884); experiment: cGAS biochemical activity assay (ATP remaining, Kinase-Glo Max luminescence)
[2] = system: cGAS/STING pathway in THP1 cells; experiment: THP1 cell-based cGAS/STING pathway activity assay (IRF-3-linked luciferase reporter)
Method in brief: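 THP1 cells carrying an IRF-3-driven luciferase reporter were read across a range of compound concentrations, and IC50 values were derived from these concentration responses; the assay upper limit was 100 μM.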

[3] = human cGAS 155-522, ATP remaining (Kinase-Glo Max), read-out: cGAS IC50

Sequence of Human cGAS amino acids 155-522 (Q8N884 157-522): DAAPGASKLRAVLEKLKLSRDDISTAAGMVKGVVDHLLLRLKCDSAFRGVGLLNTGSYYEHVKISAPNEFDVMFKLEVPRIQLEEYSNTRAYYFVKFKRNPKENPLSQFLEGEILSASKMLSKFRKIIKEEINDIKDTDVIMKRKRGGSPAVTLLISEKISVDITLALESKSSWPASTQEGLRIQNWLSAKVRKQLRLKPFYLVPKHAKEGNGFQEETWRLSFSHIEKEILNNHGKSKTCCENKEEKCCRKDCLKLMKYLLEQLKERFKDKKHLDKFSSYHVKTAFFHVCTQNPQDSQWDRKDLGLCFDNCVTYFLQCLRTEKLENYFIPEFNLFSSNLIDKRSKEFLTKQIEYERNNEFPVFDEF

| IC50 [1, 3] [µM] | IC50 ([2]; Homo sapiens, THP-1) [µM] | IC50 ([2]; read-out: THP-1 IC50) [µM] | SMILES | IC50 ([1]; cGAS IC50, human cGAS 155-522, ATP remaining (Kinase-Glo Max)) [µM] |
| --- | --- | --- | --- | --- |
| < 20 | > 100 |  | COC(=O)[C@@H]1COC(c2c(C)[nH]c3c(-c4ccccc4)c(C(F)(F)F)nn3c2=O)=N1 [Compound C1187, methyl (S)-2-(5-methyl-7-oxo-3-phenyl-2-(trifluoromethyl)-4,7-dihydropyrazolo[1,5-a]pyrimidin-6-yl)-4,5-dihydrooxazole-4-carboxylate] |  |
| < 20 | < 20 |  | Cc1[nH]c2c(-c3ccccc3)c(C#N)nn2c(=O)c1-c1nc2c(N(C)C)cccc2o1 [Compound C1272, 6-(4-(dimethylamino)benzo[d]oxazol-2-yl)-5-methyl-7-oxo-3-phenyl-4,7-dihydropyrazolo[1,5-a]pyrimidine-2-carbonitrile] |  |
| < 20 |  | > 100 | CO[C@@H]1CCCC(c2nnc(-c3c(C)[nH]c4c(-c5ccccc5)c(C(F)(F)F)nn4c3=O)o2)C1 (stereo partly drawn) [D1021 Iso-2] |  |
| < 20 | > 100 |  | Cc1[nH]c2c(-c3ccccc3)c(C(F)(F)F)nn2c(=O)c1-c1nnc(-c2cccc(O)n2)o1 [Compound D1086, 6-(5-(6-hydroxypyridin-2-yl)-1,3,4-oxadiazol-2-yl)-5-methyl-3-phenyl-2-(trifluoromethyl)pyrazolo[1,5-a]pyrimidin-7(4H)-one] |  |
| < 20 | > 100 |  | COc1cccc2oc(-c3c(-c4cn[nH]c4)[nH]c4c(-c5ccccc5)c(C(F)(F)F)nn4c3=O)nc12 [Compound C1254, 6-(4-methoxybenzo[d]oxazol-2-yl)-3-phenyl-5-(1H-pyrazol-4-yl)-2-(triluoromethyl)pyrazolo[1,5-a]pyrimidin-7(4H)-one] |  |

Second part, the molecule before the results:

| SMILES | IC50 [1, 3] [µM] | IC50 ([2]; Homo sapiens, THP-1) [µM] | IC50 ([2]; read-out: THP-1 IC50) [µM] | IC50 ([1]; cGAS IC50, human cGAS 155-522, ATP remaining (Kinase-Glo Max)) [µM] |
| --- | --- | --- | --- | --- |
| Cc1[nH]c2c(-c3ccccc3)c(C(F)(F)F)nn2c(=O)c1-c1nc2c(OC(=O)N(C)C)cccc2o1 [Compound C1088, 2-(5-methyl-7-oxo-3-phenyl-2-(trifluoromethyl)-4,7-dihydropyrazolo[1,5-a]pyrimidin-6-yl)benzo[d]oxazol-4-yl dimethylcarbamate] |  | 20 to 100 |  | < 20 |
| Cc1[nH]c2c(-c3ccccc3)c(C(F)(F)F)nn2c(=O)c1C(=O)Nc1cccc(OC(C)C)c1 [Compound A1066, N-(3-isopropoxyphenyl)-5-methyl-7-oxo-3-phenyl-2-(trifluoromethyl)-4,7-dihydropyrazolo[1,5-a]pyrimidine-6-carboxamide] | < 20 | < 20 |  |  |
| Cc1[nH]c2c(-c3ccccc3)c(C(F)(F)F)nn2c(=O)c1C(=O)Nc1nccs1 [Compound A1028, 5-methyl-7-oxo-3-phenyl-N-(thiazol-2-yl)-2-(trifluoromethyl)-4,7-dihydropyrazolo[1,5-a]pyrimidine-6-carboxamide] | < 20 | 20 to 100 |  |  |
| Cc1[nH]c2c(-c3ccccc3)c(C(F)(F)F)nn2c(=O)c1-c1nc(C(=O)O)co1 [Compound C1165, 2-(5-methyl-7-oxo-3-phenyl-2-(trifluoromethyl)-4,7-dihydropyrazolo[1,5-a]pyrimidin-6-yl)oxazole-4-carboxylic acid] | < 20 | > 100 |  |  |
| Cc1[nH]c2c(-c3ccccc3)c(C(F)(F)F)nn2c(=O)c1-c1ncc(C2CCCOC2)o1 (stereo not drawn) [Compound C1027, 5-methyl-3-phenyl-6-(5-(tetrahydro-2H-pyran-3-yl)oxazol-2-yl)-2-(trifluoromethyl)pyrazolo[1,5-a]pyrimidin-7(4H)-one] | < 20 | 20 to 100 |  |  |
| CNc1cc(OC)c2nc(-c3c(C)[nH]c4c(-c5ccccc5)c(C(F)(F)F)nn4c3=O)oc2c1 [Compound C1161, 6-(4-methoxy-6-(methylamino)benzo[d]oxazol-2-yl)-5-methyl-3-phenyl-2-(trifluoromethyl)pyrazolo[1,5-a]pyrimidin-7(4H)-one] | < 20 | < 20 |  |  |
| COc1cccc2c(=O)[nH]c(-c3c(C)[nH]c4c(-c5ccccc5)c(C(F)(F)F)nn4c3=O)nc12 [Compound C1025, 8-methoxy-2-(5-methyl-7-oxo-3-phenyl-2-(trifluoromethyl)-4,7-dihydropyrazolo[1,5-a]pyrimidin-6-yl)quinazolin-4(3H)-one] | < 20 | > 100 |  |  |
